The values that follow come from paper PMC8998978, “Toward a Treatment of Cancer: Design and In Vitro/In Vivo Evaluation of Uncharged Pyrazoline Derivatives as a Series of Novel SHP2 Inhibitors” (International Journal of Molecular Sciences, 2022).

Data set [1] deals with T1, recombinant human SHP2 protein (Homo sapiens, UniProt Q06124).
T1 sequence (Q06124 1-593): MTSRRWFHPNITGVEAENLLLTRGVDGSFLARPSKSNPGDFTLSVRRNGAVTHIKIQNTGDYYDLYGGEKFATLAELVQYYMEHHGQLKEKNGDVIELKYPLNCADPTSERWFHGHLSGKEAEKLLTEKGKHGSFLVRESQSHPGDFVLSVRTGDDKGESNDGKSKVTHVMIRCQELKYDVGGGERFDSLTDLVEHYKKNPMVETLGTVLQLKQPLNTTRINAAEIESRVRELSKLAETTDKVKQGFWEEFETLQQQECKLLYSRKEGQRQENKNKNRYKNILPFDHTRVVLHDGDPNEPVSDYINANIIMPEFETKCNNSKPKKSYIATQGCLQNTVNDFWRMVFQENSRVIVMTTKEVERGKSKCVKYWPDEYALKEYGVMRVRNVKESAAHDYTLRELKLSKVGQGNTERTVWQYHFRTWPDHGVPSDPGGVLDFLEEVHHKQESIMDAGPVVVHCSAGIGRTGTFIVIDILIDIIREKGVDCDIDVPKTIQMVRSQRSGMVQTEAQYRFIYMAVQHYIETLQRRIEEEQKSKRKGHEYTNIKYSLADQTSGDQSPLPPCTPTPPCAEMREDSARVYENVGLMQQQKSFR
Nature of the data set: SHP2 inhibition assay (pNPP substrate). Format: biochemical. The settings on record: pNPP 4 mM, SHP2 240 nM, 37 °C, 30 min; means ± SD. The protocol: pGEX-4T1 SHP2 WT (plasmid #8322) was purchased from Addgene. […] Then, 0.2 mM IPTG (Sangon Biotech, Shanghai, China) was added to induce the expression of protein at 30 °C for 4 h followed by centrifugation and cells collection. Cells were then broken by ultrasound in lysis buffer (20 mM Tris–HCl (pH 8.0), 100 mM KCl, 10% glycerol, 1 mM DTT, 0.5% Triton X-100) on ice. The supernatant was collected by centrifugation at 10,000× g for 15 min at 4 °C. The BeaverBeads GSH (Beaver Biosciences Inc., Guangzhou, China) washed by lysis buffer were incubated with the supernatant for 2 h at 4 °C. […] Then, the experiment was performed in a final volume of 100 μL containing 10 mM Tris–HCl (pH 7.5), 25 mM NaCl, 1 mM EDTA and 4 mM pNPP in a 96-well plate at 37 °C for 30 min. The amount of product p-nitrophenol was determined by the absorbance at 405 nm in a multimode reader (Berthold Technologies GmbH & Co.KG, Bad Wildbad, Baden Württemberg, Germany). The IC50 value was calculated by GraphPad Prism 7.0 software (GraphPad Inc, San Diego, CA, USA).

For data set [2], the system named is SHP2. The settings on record: cited from earlier work.
The test system of data set [3] is HCT116 cells xenograft. The data set is described as follows: Anti-tumor activity in vivo, HCT116 xenograft model. Also noted: species or system BALB/c-nude mice. The settings on record: 13 days. The method, then:
Male BALB/c-nude mice (Jinan Pengyue Experimental Animal Breeding Co., Ltd., Jinan, China), 5 weeks of age, were used. The mice were housed in a specific pathogen-free room with temperature controlled (22 ± 2 °C), humidity (55 ± 10%) and a light/dark cycle of 12 h, providing sterile food and water. The HCT116 cells xenograft model was conducted, and 1 × 10^7 HCT116 cells were subcutaneously injected into the right armpit of mice. The tumor volume of mice was measured every three days to evaluate the tumor growth. When the tumor volume reached about 100 mm^3, the mice were randomly divided into four groups (n = 6), and treated with vehicle (0.5% CMC-Na solution) or 4o (25, 50 mg/kg) by gavage once a day for 13 consecutive days. A total of 25 mg/kg 5-FU was used as a positive control. The body weight of mice was measured every three days. The length (L) and width (W) of tumors were measured by electronic caliper every three days. The volume (V) was calculated as follows: V = (L × W^2)/2. When the tumor volume reached about 1000 mm^3, the tumors were excised. Immunohistochemical analysis were used to evaluate the related protein levels.

Usually IC50 stands for the midpoint of a concentration-inhibition curve. For `NC(=S)N1N=C(c2ccc(Oc3ccccc3)cc2)CC1c1ccc(O)c(O)c1` (stereo not drawn) [Compound 4g, 5-(3,4-dihydroxyphenyl)-3-(4-phenoxyphenyl)-4,5-dihydro-1H-pyrazole-1-carbothioamide], in data set [1], the IC50 came out at 5.97 ± 0.88 µM.

With `CCOc1ccc(Oc2ccc(C3=NN(C(N)=S)C(c4ccc(O)c(O)c4)C3)cc2)cc1` (stereo not drawn) [Compound 4e, 5-(3,4-dihydroxyphenyl)-3-(4-(4-ethoxyphenoxy)phenyl)-4,5-dihydro-1H-pyrazole-1-carbothioamide], in data set [1], the IC50 was determined as 5.96 ± 0.92 µM.

`CCOc1ccc(Oc2ccc(C3=NN(C4=NC(=O)CS4)C(c4ccc(O)c(O)c4)C3)cc2)cc1` (stereo not drawn) [Compound 4l, 2-(5-(3,4-dihydroxyphenyl)-3-(4-(4-ethoxyphenoxy)phenyl)-4,5-dihydro-1H-pyrazol-1-yl)thiazol-4(5H)-one]: in data set [1], the half-maximal inhibitory concentration (IC50) turned out to be 4.36 ± 0.65 µM.

With `CCOc1ccc(Oc2ccc(C3=NN(C=O)C(c4ccc(O)c(O)c4)C3)cc2)cc1` (stereo not drawn) [Compound 4a, 5-(3,4-dihydroxyphenyl)-3-(4-(4-ethoxyphenoxy)phenyl)-4,5-dihydro-1H-pyrazole-1-carbaldehyde], the 50% inhibitory concentration (IC50) in data set [1] was 13.3 ± 2.11 µM. For `CCC(=O)N1N=C(c2ccc(Oc3ccccc3)cc2)CC1c1ccc(O)c(O)c1` (stereo not drawn) [Compound 4c, 1-(5-(3,4-dihydroxyphenyl)-3-(4-phenoxyphenyl)-4,5-dihydro-1H-pyrazol-1-yl)propan-1-one], the 50% inhibitory concentration (IC50) in data set [1] was 34.2 ± 5.9 µM. In the case of `CC(C)(C)c1ccc(Oc2ccc(C3=NN(C=O)C(c4ccc(O)c(O)c4)C3)cc2)cc1` (stereo not drawn) [Compound 4b, 3-(4-(4-(tert-butyl)phenoxy)phenyl)-5-(3,4-dihydroxyphenyl)-4,5-dihydro-1H-pyrazole-1-carbaldehyde], in data set [1], the 50% inhibitory concentration (IC50) was found to be 13.7 ± 1.98 µM.

As to `O=C1CSC(N2N=C(c3ccc(Oc4ccccc4)cc3)CC2c2ccc(O)c(O)c2)=N1` (stereo not drawn) [Compound 4k, 2-(5-(3,4-dihydroxyphenyl)-3-(4-phenoxyphenyl)-4,5-dihydro-1H-pyrazol-1-yl)thiazol-4(5H)-one], in data set [1], the IC50 turned out to be 4.98 ± 0.77 µM. The same measure, in the same setting: to `O=C1CSC(N2N=C(c3ccc(Br)cc3)CC2c2ccc(O)c(O)c2)=N1` (stereo not drawn) [Compound 4n, 2-(3-(4-bromophenyl)-5-(3,4-dihydroxyphenyl)-4,5-dihydro-1H-pyrazol-1-yl)thiazol-4(5H)-one] belongs 18.5 ± 2.32 µM. Consider `CCCC(=O)N1N=C(c2ccc(Oc3ccccc3)cc2)CC1c1ccc(O)c(O)c1` (stereo not drawn) [Compound 4d, 1-(5-(3,4-dihydroxyphenyl)-3-(4-phenoxyphenyl)-4,5-dihydro-1H-pyrazol-1-yl)butan-1-one], for which the IC50 in data set [1] came out at 9.51 ± 2.01 µM.

Regarding `CC(C)(C)c1ccc(Oc2ccc(C3=NN(C(N)=S)C(c4ccc(O)c(O)c4)C3)cc2)cc1` (stereo not drawn) [Compound 4h, 3-(4-(4-(tert-butyl)phenoxy)phenyl)-5-(3,4-dihydroxyphenyl)-4,5-dihydro-1H-pyrazole-1-carbothioamide], the concentration for half-maximal inhibition (IC50) in data set [1] came out at 8.44 ± 2.03 µM.

Regarding `NC(=O)C(c1ccccc1)S(=O)(=O)O` (stereo not drawn) [Sulfophenyl acetic amide], the IC50 in data set [2] is 1.5 µM. `COc1ccc(C2=NN(C(N)=S)C(c3ccc(O)c(O)c3)C2)cc1` (stereo not drawn) [Compound 4f, 5-(3,4-dihydroxyphenyl)-3-(4-methoxyphenyl)-4,5-dihydro-1H-pyrazole-1-carbothioamide]: in data set [1], the IC50 is 13.2 ± 1.89 µM. On the same count and under the same terms, the figure for `COc1ccc(C2=NN(C3=NC(=O)CS3)C(c3ccc(O)c(O)c3)C2)cc1` (stereo not drawn) [Compound 4j, 2-(5-(3,4-dihydroxyphenyl)-3-(4-methoxyphenyl)-4,5-dihydro-1H-pyrazol-1-yl)thiazol-4(5H)-one] is 11.4 ± 1.56 µM; for `NC(=S)N1N=C(c2ccc(Br)cc2)CC1c1ccc(O)c(O)c1` (stereo not drawn) [Compound 4i, 3-(4-bromophenyl)-5-(3,4-dihydroxyphenyl)-4,5-dihydro-1H-pyrazole-1-carbothioamide] it is 20.4 ± 2.45 µM. Consider `O=c1[nH]cc(F)c(=O)[nH]1` [Compound 5-FU, 5-fluorouracil, reference compound], for which the “Effect on body weight of tumor-bearing mice” value in data set [3] (4o 25, 50 mg/kg or 5-FU 25 mg/kg) is recorded as “showed a decrease”. The same molecule showed a Tumor inhibition rate in data set [3] (5-FU 25 mg/kg, positive drug) of 54.8%.

Regarding Tautomycetin, in data set [2], the IC50 was 2.9 µM. Take `CC(C)(C)c1ccc(Oc2ccc(C3=NN(C4=NC(=O)CS4)C(c4ccc(O)c(O)c4)C3)cc2)cc1` (stereo not drawn) [Compound 4m, 2-(3-(4-(4-(tert-butyl)phenoxy)phenyl)-5-(3,4-dihydroxyphenyl)-4,5-dihydro-1H-pyrazol-1-yl)thiazol-4(5H)-one]: the 50% inhibitory concentration (IC50) in data set [1] is 4.94 ± 0.79 µM.
